Laboratory results reported in patent US9670219B2, “Tetrahydrooxepinopyridine compound” (ASTELLAS PHARMA INC., priority 2015, dated 2017).
Structures can show the parent of a compound that is named as a salt.

Legend:
human α7 nACh receptor [1] = target: T1, human α7 nACh receptor (Homo sapiens, UniProt P36544); assay: Evaluation for human α7 nACh receptor using FLIPR (intracellular calcium response, PAM activity); assay type: cell-based; conditions: for Max: maximum response of test drug with agonist PNU-282987, relative to maximum response of PNU-120596 = 100%; for EC20: test drug concentration giving 20% response, maximum response of PNU-120596 with agonist PNU-282987 (0.6 μM) = 100%, HEK293 cells co-expressing human α7 nACh receptor/rat RIC3
T1 construct: expressed in transfected cells; host or cells: HEK293 cells (ATCC CRL-1573), transient co-transfection by electroporation with rat RIC3 (NM_001115045.3)
Experimental: Assay buffer: HBSS buffer containing 1.25 mM probenecid.
The PAM activity of a test drug was evaluated in terms of Ca^2+ dye-based fluorescence intensity for an intracellular calcium response in the presence of an α7 nACh receptor-selective agonist PNU-282987 (CAS registry number: 123464-89-1, Tocris) using a FLIPR tetra (Molecular Devices).
In the case where a concentration-response curve has been obtained in which the logarithm of a concentration of a test drug is on the abscissa and the ratio of a response (hereinafter, also referred to as calcium response) is on the ordinate, this test drug has been determined to have a PAM activity.
In this test, the agonist (PNU-282987) elicited a calcium response only in the presence of PAM (PNU-120596).
The coding sequence of a human α7 nACh receptor (accession number: NM_000746.5) was subcloned into a pCEP4 vector (Life Technologies). The coding sequence of a rat chaperone protein RIC3 (accession number: NM_001115045.3) was subcloned into a pcDNA3.1/Hygro (+) vector (Life Technologies). The resulting constructs were transfected into HEK293 cells (ATCC number: CRL-1573) by an electroporation method using Neon (Life Technologies).
The transiently expressing cells obtained in the manner described above were seeded at a density of 8×10^3 cells/well onto a 384-well plate (Becton Dickinson) and allowed to stand overnight at 37° C. DMEM+10% FBS was used as a medium.
On the next day, the medium was removed, and Fluo4-AM (Dojindo) prepared using an assay buffer was applied, followed by allowing to stand for 1 hour. The test drug was dissolved in DMSO and then made to a final concentration of 0.03 to 100 μM (3-fold dilutions) with an assay buffer. Similarly, PNU-120596 which is a known PAM was made to a final concentration of 0.003 to 10 μM (3-fold dilutions). PNU-282987 which is an agonist was made to a final concentration of 0.6 μM. Thereafter, the test drug was applied to the cells using a FLIPR tetra, the agonist (PNU-282987) was added 5 minutes later, and the fluorescence intensity at that time was detected.
As a control, using (1) a group with neither addition of a test drug, PAM (PNU-120596) nor that of agonist (PNU-282987), the response thereof was set to 0%. Using (2) a group with the addition of PAM (PNU-120596) and agonist (PNU-282987), the maximum response thereof was set to 100%.
To quantitatively compare the PAM activity of the test drug, an EC20 value and a Max value were used as activity indicators. […] The EC20 value was calculated using a non-linear regression analysis from the concentration-response curve of a human α7 nACh receptor with the addition of a test drug. The Max value refers to a maximum response value. The Max value is expressed in terms of % value of the maximum response of a test drug in the presence of an agonist (PNU-282987) relative to when the maximum response of PAM (PNU-120596) in the presence of an agonist (PNU-282987) is set to 100%.

human α7 nACh receptor [2] = target: T1, human α7 nACh receptor; assay: Electrophysiological evaluation for human α7 nACh receptor (Qpatch HTX or Qube current response); assay type: cell-based; parameters: key: positive: an inward current response specific to a human α7 nACh receptor was obtained when 3 μM of a test drug had been added; negative: a specific current response was not observed; conditions: 3 μM test drug added simultaneously with 100 μM AChCl; voltage-clamped at −90 mV
Experimental: The PAM activity of a test drug was evaluated by a current response in the presence of an α7 nACh receptor agonist Acetylcholine chloride (Sigma) (hereinafter, also referred to as AChCl) using Qpatch HTX (Biolin Scientific) or Qube (Biolin Scientific). This test cannot detect a small current response of AChCl alone. The current response can be detected only in the case where the test drug has a PAM activity.
Extracellular fluid (pH 7.4): NaCl 145 mM, KCl 4 mM, HEPES 10 mM, CaCl2 2 mM, MgCl2 1 mM.
Intracellular fluid (pH 7.2): KF 120 mM, KCl 20 mM, EGTA 0.1 mM, HEPES 10 mM, MgCl2 2 mM.
The cells were obtained in the same manner as in Test Example 1.
The response of a human α7 nACh receptor with the addition of a test drug was measured by the following experiment. Transient expression cells obtained by the method described above were subjected to the experiment after allowing to stand overnight at 37° C. The test drug was dissolved in DMSO, and then made to a final concentration of 3 μM using extracellular fluid. The agonist AChCl was made to a final concentration of 100 μM. The membrane potential was voltage-clamped at −90 mV. The current response was measured by multi-hole mode at the time of simultaneous addition of the test drug and AChCl to the cells, using QPatch HTX or Qube.
As a result of the tests above, the case where an inward current response specific to a human α7 nACh receptor was obtained when 3 μM of a test drug had been added was determined as positive, and the case where a specific current response was not observed was determined as negative. It should be noted that, when the agonist concentration is 0, the current response was not observed even with the addition of a test drug.

T1 sequence (P36544 23-502): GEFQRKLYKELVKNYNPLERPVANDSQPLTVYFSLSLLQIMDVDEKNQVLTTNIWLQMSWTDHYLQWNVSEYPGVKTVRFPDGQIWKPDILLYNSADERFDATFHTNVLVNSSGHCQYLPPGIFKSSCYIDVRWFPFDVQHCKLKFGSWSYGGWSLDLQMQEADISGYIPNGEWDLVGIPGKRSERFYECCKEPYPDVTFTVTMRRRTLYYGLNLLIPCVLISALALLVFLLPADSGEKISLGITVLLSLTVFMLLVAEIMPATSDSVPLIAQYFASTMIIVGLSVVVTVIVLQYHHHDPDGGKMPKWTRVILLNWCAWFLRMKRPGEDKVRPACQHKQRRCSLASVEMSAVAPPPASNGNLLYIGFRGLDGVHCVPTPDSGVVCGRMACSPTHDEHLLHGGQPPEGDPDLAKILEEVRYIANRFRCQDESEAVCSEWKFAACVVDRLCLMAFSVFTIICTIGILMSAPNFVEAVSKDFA

Row | Max (human α7 nACh receptor [1]) [%] | EC20 (human α7 nACh receptor [1]) [µM] | Dat. 1 (Determination) (human α7 nACh receptor [2]) | SMILES | other results
1 | 99.8 | 2.72 | – | O=C(Nc1cccnn1)c1cc(N2CCC[C@H](C(F)(F)F)C2)nc2c1CCOCC2 [Ex 1, N-(pyridazin-3-yl)-2-[(3S)-3-(trifluoromethyl)piperidin-1-yl]-5,6,8,9-tetrahydrooxepino[4,5-b]pyridine-4-carboxamide fumarate] | –
2 | 94.8 | 0.512 | – | O=C(Nc1cccnn1)c1cc(N2CCC[C@@H](C(F)(F)F)C2)nc2c1CCOCC2 [Ex 7, N-(pyridazin-3-yl)-2-[(3R)-3-(trifluoromethyl)piperidin-1-yl]-5,6,8,9-tetrahydrooxepino[4,5-b]pyridine-4-carboxamide fumarate] | –
3 | 69.3 | 3.52 | – | CC1(C)CN(c2cc(C(=O)Nc3cccnn3)c3c(n2)CCOCC3)CC(C)(C)O1 [Ex 9, N-(pyridazin-3-yl)-2-(2,2,6,6-tetramethylmorpholin-4-yl)-5,6,8,9-tetrahydrooxepino[4,5-b]pyridine-4-carboxamide hydrochloride] | –
4 | 96.9 | 4.35 | – | C[C@@H]1CN(c2cc(C(=O)Nc3ccc(F)cn3)c3c(n2)CCOCC3)C[C@H](C)O1 [Ex 12, 2-[(2R,6S)-2,6-dimethylmorpholin-4-yl]-N-(5-fluoropyridin-2-yl)-5,6,8,9-tetrahydrooxepino[4,5-b]pyridine-4-carboxamide] | –
5 | 79.2 | 1.02 | positive | C[C@@H]1CN(c2cc(C(=O)Nc3ccc(Cl)cn3)c3c(n2)CCOCC3)C[C@H](C)O1 [Ex 18, N-(5-chloropyridin-2-yl)-2-[(2R,6S)-2,6-dimethylmorpholin-4-yl]-5,6,8,9-tetrahydrooxepino[4,5-b]pyridine-4-carboxamide hydrochloride] | –
6 | – | – | positive | COc1ccc(NC(=O)c2cc(N3CCC[C@H]3C)nc3c2CCOCC3)nn1 [Ex 36] | –
7 | – | – | positive | Cc1cncc(NC(=O)c2cc(N3CCC[C@@H]3C)nc3c2CCOCC3)n1 [Ex 40, N-(6-methylpyrazin-2-yl)-2-[(2S)-2-methylpyrrolidin-1-yl]-5,6,8,9-tetrahydrooxepino[4,5-b]pyridine-4-carboxamide hydrochloride] | –
8 | – | – | positive | Cc1ncc(NC(=O)c2cc(N3CCC[C@H]3C)nc3c2CCOCC3)nc1C [Ex 46] | –
9 | – | – | positive | CO[C@H]1CCN(c2cc(C(=O)Nc3cccc(C#N)c3)c3c(n2)CCOCC3)C1 [Ex 48, N-(3-cyanophenyl)-2-[(3S)-3-methoxypyrrolidin-1-yl]-5,6,8,9-tetrahydrooxepino[4,5-b]pyridine-4-carboxamide hydrochloride] | –
10 | – | – | positive | O=C(Nc1cccnn1)c1cc(N2CCC(F)CC2)nc2c1CCOCC2 [Ex 50] | –
11 | – | – | positive | O=C(Nc1ccc(Cl)cn1)c1cc(N2CCC(F)CC2)nc2c1CCOCC2 [Ex 51, N-(5-chloropyridin-2-yl)-2-(4-fluoropiperidin-1-yl)-5,6,8,9-tetrahydrooxepino[4,5-b]pyridine-4-carboxamide] | –
12 | – | – | positive | Cc1ncc(NC(=O)c2cc(N3CCC[C@@H]3C)nc3c2CCOCC3)nc1C [Ex 55] | –
13 | – | – | positive | C[C@H]1CCCCN1c1cc(C(=O)Nc2cccnn2)c2c(n1)CCOCC2 [Ex 69, 2-[(2S)-2-methylpiperidin-1-yl]-N-(pyridazin-3-yl)-5,6,8,9-tetrahydrooxepino[4,5-b]pyridine-4-carboxamide hydrochloride] | –
14 | – | – | positive | C[C@H]1CCCCN1c1cc(C(=O)Nc2cnccn2)c2c(n1)CCOCC2 [Ex 70, 2-[(2S)-2-methylpiperidin-1-yl]-N-(pyrazin-2-yl)-5,6,8,9-tetrahydrooxepino[4,5-b]pyridine-4-carboxamide hydrochloride] | –
15 | – | – | – | O=C(N[C@H]1CN2CCC1CC2)c1ccc(Cl)cc1 [PNU-282987, N-(3R)-1-azabicyclo[2.2.2]octo-3-yl-4-chlorobenz amide, reference compound] | calcium response, substance alone (human α7 nACh receptor [1]; agonist alone or test compound alone): not elicited

Row | SMILES | Max (human α7 nACh receptor [1]) [%] | EC20 (human α7 nACh receptor [1]) [µM] | Dat. 1 (Determination) (human α7 nACh receptor [2]) | other results
16 | O=C(Nc1ccc(Cl)cn1)c1cc(N2CCC[C@H](F)C2)nc2c1CCOCC2 [Ex 76, N-(5-chloropyridin-2-yl)-2-[(3S)-3-fluoropiperidin-1-yl]-5,6,8,9-tetrahydrooxepino[4,5-b]pyridine-4-carboxamide benzenesulfonate] | – | – | positive | –
